Consider twelve compounds from ChEMBL document CHEMBL3817835, “Progress in the development of small molecules as new human A3adenosine receptor ligands based on the 3-thiophenylcoumarin core” (Medchemcomm, 2016).

Broadly, the Ki is a dissociation constant, usually derived from enzyme kinetics or from competition with a known ligand.

For one test, the target named is T1, Adenosine receptor A1 (Homo sapiens, UniProt P30542).
T1 sequence (P30542 whole entry): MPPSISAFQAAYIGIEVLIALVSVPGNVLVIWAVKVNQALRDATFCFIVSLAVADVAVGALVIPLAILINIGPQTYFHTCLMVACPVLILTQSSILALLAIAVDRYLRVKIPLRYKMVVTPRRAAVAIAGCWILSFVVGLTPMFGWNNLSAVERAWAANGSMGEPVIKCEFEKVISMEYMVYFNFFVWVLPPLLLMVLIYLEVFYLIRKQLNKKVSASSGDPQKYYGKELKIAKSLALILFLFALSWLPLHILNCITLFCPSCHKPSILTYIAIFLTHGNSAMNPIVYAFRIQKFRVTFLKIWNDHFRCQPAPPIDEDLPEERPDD
The experiment in a line: Displacement of [3H]CCPA from human A1 adenosine receptor expressed in CHO cells. Type of test: cell-based. Background: Displacement assays read how much labelled ligand stays bound in the presence of the test substance.

In another test the target is Adenosine receptor A2a (Homo sapiens, UniProt P29274). The experiment in a line: Displacement of [3H]NECA from human A2A adenosine receptor expressed in CHO cells. The format is cell-based.
In another test the target is Adenosine receptor A3 (Homo sapiens, UniProt P0DMS8). The experiment in a line: Displacement of [3H]HEMADO from human A3 adenosine receptor expressed in CHO cells. Type of test: cell-based.
The next test concerns the target T2, Adenosine receptor A2b (Homo sapiens, UniProt P29275).
T2 sequence (P29275 whole entry): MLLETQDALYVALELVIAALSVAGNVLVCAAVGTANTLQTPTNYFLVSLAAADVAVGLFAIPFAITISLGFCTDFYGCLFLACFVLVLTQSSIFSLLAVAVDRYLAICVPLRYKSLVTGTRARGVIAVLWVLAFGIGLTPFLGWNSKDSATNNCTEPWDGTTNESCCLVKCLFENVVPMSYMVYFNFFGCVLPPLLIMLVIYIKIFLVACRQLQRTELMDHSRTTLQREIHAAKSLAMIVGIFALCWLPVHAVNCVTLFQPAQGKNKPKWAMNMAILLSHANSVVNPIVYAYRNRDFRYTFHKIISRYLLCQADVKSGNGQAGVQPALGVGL
The experiment in a line: Antagonist activity at human A2B adenosine receptor assessed as inhibition of NECA-stimulated adenylyl cyclase activity. The format is functional.

In test [1] the target is Adenosine receptors; A1 & A3 (Homo sapiens) (UniProt P30542+P0DMS8). Put plainly: Selectivity index, ratio of Ki for human A1 adenosine receptor to Ki for human A3 adenosine receptor.
Another test is filed under the species Homo sapiens. Put plainly: Selectivity index, ratio of Ki for human A2 adenosine receptor to Ki for human A3 adenosine receptor.

Sequence of Adenosine receptor A3 (P0DMS8 whole entry, looked up): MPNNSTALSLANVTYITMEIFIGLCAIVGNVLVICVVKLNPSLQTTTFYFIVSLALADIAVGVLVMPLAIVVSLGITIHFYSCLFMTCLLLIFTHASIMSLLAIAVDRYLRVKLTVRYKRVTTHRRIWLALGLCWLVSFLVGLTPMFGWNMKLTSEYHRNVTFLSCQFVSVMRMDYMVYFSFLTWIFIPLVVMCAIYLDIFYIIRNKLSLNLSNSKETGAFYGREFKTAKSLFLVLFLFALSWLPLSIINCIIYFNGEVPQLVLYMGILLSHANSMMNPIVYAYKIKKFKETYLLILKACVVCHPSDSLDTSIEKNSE
Sequence of Adenosine receptor A2a (P29274 whole entry): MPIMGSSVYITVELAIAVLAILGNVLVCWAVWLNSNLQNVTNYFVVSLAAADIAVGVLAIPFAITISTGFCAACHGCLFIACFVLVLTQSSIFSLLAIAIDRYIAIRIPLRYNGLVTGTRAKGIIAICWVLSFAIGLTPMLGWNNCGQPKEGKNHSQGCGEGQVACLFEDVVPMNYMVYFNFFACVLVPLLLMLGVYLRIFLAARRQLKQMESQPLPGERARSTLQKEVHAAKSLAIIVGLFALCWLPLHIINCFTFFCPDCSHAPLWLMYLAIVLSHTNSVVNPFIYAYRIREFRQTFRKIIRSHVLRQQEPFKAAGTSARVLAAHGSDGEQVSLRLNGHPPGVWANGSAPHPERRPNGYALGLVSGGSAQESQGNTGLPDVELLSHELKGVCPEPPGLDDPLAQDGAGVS

As to `O=c1oc2c(O)c(O)ccc2cc1-c1cccs1`, the Ki is 3.23 µM on Adenosine receptor A1, 9.98 µM at Adenosine receptor A2a, 4.83 µM on Adenosine receptor A3 and > 30 µM at Adenosine receptor A2b.
For `CC(=O)Oc1cccc2cc(-c3ccsc3)c(=O)oc12`, the Ki was > 100 µM at Adenosine receptor A1, 14.7 µM at Adenosine receptor A2a, 1.82 µM at Adenosine receptor A3 and > 30 µM on Adenosine receptor A2b.
With `CC(=O)Oc1cccc2cc(-c3cc(Br)cs3)c(=O)oc12`, the Ki is > 100 µM on Adenosine receptor A1, > 100 µM at Adenosine receptor A2a, 4.08 µM at Adenosine receptor A3 and > 30 µM at Adenosine receptor A2b.
Take `CC(=O)Oc1ccc2cc(-c3ccsc3)c(=O)oc2c1OC(C)=O`: the Ki was > 100 µM on Adenosine receptor A1, 20.6 µM on Adenosine receptor A2a, 3.6 µM on Adenosine receptor A3 and > 30 µM at Adenosine receptor A2b.
For `O=c1oc2c(O)cccc2cc1-c1ccsc1` the same measures were 5.92 µM, 9.87 µM, 2.87 µM and > 30 µM.
Consider `CC(=O)Oc1cccc2cc(-c3cccs3)c(=O)oc12`, for which the Ki on Adenosine receptor A1 is > 100 µM; on Adenosine receptor A2a it was 18.8 µM; at Adenosine receptor A3, 2.58 µM; at Adenosine receptor A2b it was > 30 µM.
As for `O=c1oc2c(O)cccc2cc1-c1cc(Br)cs1`, the Ki at Adenosine receptor A1 is > 100 µM; on Adenosine receptor A2a it was > 100 µM; at Adenosine receptor A3, 0.746 µM; on Adenosine receptor A2b, > 30 µM. Also, the Ratio Ki (in test [1]; in the test filed under Homo sapiens) was 130 throughout.
For `O=c1oc2c(O)c(O)ccc2cc1-c1ccsc1`, the Ki on Adenosine receptor A1 was 3.36 µM; at Adenosine receptor A2a, 14.7 µM; at Adenosine receptor A3 it was 5.31 µM; at Adenosine receptor A2b, > 30 µM.
For `O=c1oc2c(O)cccc2cc1-c1cccs1` the same measures were 3.36 µM, 7.48 µM, 1.43 µM and > 30 µM.
In the case of `O=c1oc2c(O)c(O)ccc2cc1-c1cc(Br)cs1`, the Ki is 16.3 µM at Adenosine receptor A1, 12.2 µM on Adenosine receptor A2a, 3.4 µM on Adenosine receptor A3 and > 30 µM at Adenosine receptor A2b.
For `CC(=O)Oc1ccc2cc(-c3cc(Br)cs3)c(=O)oc2c1OC(C)=O` the same measures were > 100 µM, > 100 µM, > 100 µM and > 30 µM.
Consider `CC(=O)Oc1ccc2cc(-c3cccs3)c(=O)oc2c1OC(C)=O`, for which the inhibitory constant (Ki) at Adenosine receptor A1 is > 100 µM; at Adenosine receptor A2a, > 100 µM; at Adenosine receptor A3, 22.5 µM; on Adenosine receptor A2b it was > 30 µM.
